Results published in patent US12497365B2, “4-pyridinyl formamide compound or derivative thereof, preparation method therefor, herbicidal composition and use thereof” (Qingdao Kingagroot Chemical Compound Co., Ltd., priority 2019, dated 2025).

Legend:
Test in all cases: Weeding effect in post-emergence stage
Assay type in all cases: in vivo
Conditions in all cases: active ingredient 2000 g/ha, 3 weeks after application, fresh weight control rate
Abutilon theophrasti = system: Abutilon theophrasti
How it was run: (§1)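 Read-out is growth control rate based on fresh weight, assessed 3 weeks after treatment in the greenhouse. Plants were sprayed at the 2-3 leaf stage with compound dissolved in acetone, plus Tween 80 and methyl oleate emulsifiable concentrate, at doses from 125 to 2000 g/ha.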

[1] = system: Amaranthus retroflexus L.
How it was run: as §1

Chenopodium album = system: Chenopodium album
How it was run: as §1

Descurainia sophia = system: Descurainia sophia
How it was run: as §1

SMILES	Weeding effect, activity level (growth control rate), Abutilon theophrasti (Abutilon theophrasti)	Weeding effect, activity level (growth control rate), Amaranthus retroflexus L. [1]	Weeding effect, activity level (growth control rate), Chenopodium album (Chenopodium album)	Weeding effect, activity level (growth control rate), Descurainia sophia (Descurainia sophia)
Cn1nnnc1NC(=O)c1ccnc(-c2cc3ccccc3c3ccccc23)c1Cl [Compound 1-115]	5 (Level 5: growth control rate is above 85%)	5 (Level 5: growth control rate is above 85%)	5 (Level 5: growth control rate is above 85%)	5 (Level 5: growth control rate is above 85%)
Cn1nnnc1NC(=O)c1ccnc(-c2cccc3c2oc2ccccc23)c1Cl [Compound 1-116]	5 (Level 5: growth control rate is above 85%)	5 (Level 5: growth control rate is above 85%)	5 (Level 5: growth control rate is above 85%)	5 (Level 5: growth control rate is above 85%)
Cn1nnnc1NC(=O)c1ccnc(-c2ccc3c(c2)oc2ccccc23)c1Cl [Compound 1-117]	5 (Level 5: growth control rate is above 85%)	5 (Level 5: growth control rate is above 85%)	5 (Level 5: growth control rate is above 85%)	5 (Level 5: growth control rate is above 85%)
Cn1nnnc1NC(=O)c1ccnc(-c2ccc3c(c2)sc2ccccc23)c1Cl [Compound 1-118]	5 (Level 5: growth control rate is above 85%)	5 (Level 5: growth control rate is above 85%)	5 (Level 5: growth control rate is above 85%)	5 (Level 5: growth control rate is above 85%)
Cn1nnnc1NC(=O)c1ccnc(-c2ccccn2)c1Cl [Compound 1-119]	5 (Level 5: growth control rate is above 85%)	5 (Level 5: growth control rate is above 85%)	5 (Level 5: growth control rate is above 85%)	5 (Level 5: growth control rate is above 85%)
Cn1nnnc1NC(=O)c1ccnc(-c2cccc(C#N)n2)c1Cl [Compound 1-120]	5 (Level 5: growth control rate is above 85%)	5 (Level 5: growth control rate is above 85%)	5 (Level 5: growth control rate is above 85%)	5 (Level 5: growth control rate is above 85%)
Cn1nnnc1NC(=O)c1ccnc(-c2ccc(C#N)cn2)c1Cl [Compound 1-121]	5 (Level 5: growth control rate is above 85%)	5 (Level 5: growth control rate is above 85%)	5 (Level 5: growth control rate is above 85%)	5 (Level 5: growth control rate is above 85%)
Cn1nnnc1NC(=O)c1ccnc(-c2cc(C#N)ccn2)c1Cl [Compound 1-122]	5 (Level 5: growth control rate is above 85%)	5 (Level 5: growth control rate is above 85%)	5 (Level 5: growth control rate is above 85%)	5 (Level 5: growth control rate is above 85%)
Cn1nnnc1NC(=O)c1ccnc(-c2ccc(F)cn2)c1Cl [Compound 1-123]	5 (Level 5: growth control rate is above 85%)	5 (Level 5: growth control rate is above 85%)	5 (Level 5: growth control rate is above 85%)	5 (Level 5: growth control rate is above 85%)
Cn1nnnc1NC(=O)c1ccnc(-c2cccnc2)c1Cl [Compound 1-124]	5 (Level 5: growth control rate is above 85%)	5 (Level 5: growth control rate is above 85%)	5 (Level 5: growth control rate is above 85%)	5 (Level 5: growth control rate is above 85%)
Cc1ccncc1-c1nccc(C(=O)Nc2nnnn2C)c1Cl [Compound 1-125]	5 (Level 5: growth control rate is above 85%)	5 (Level 5: growth control rate is above 85%)	5 (Level 5: growth control rate is above 85%)	5 (Level 5: growth control rate is above 85%)
Cc1cncc(-c2nccc(C(=O)Nc3nnnn3C)c2Cl)c1 [Compound 1-126]	5 (Level 5: growth control rate is above 85%)	5 (Level 5: growth control rate is above 85%)	5 (Level 5: growth control rate is above 85%)	5 (Level 5: growth control rate is above 85%)
Cn1nnnc1NC(=O)c1ccnc(-c2cccnc2F)c1Cl [Compound 1-127]	5 (Level 5: growth control rate is above 85%)	5 (Level 5: growth control rate is above 85%)	5 (Level 5: growth control rate is above 85%)	5 (Level 5: growth control rate is above 85%)
Cn1nnnc1NC(=O)c1ccnc(-c2cncc(F)c2)c1Cl [Compound 1-128]	5 (Level 5: growth control rate is above 85%)	5 (Level 5: growth control rate is above 85%)	5 (Level 5: growth control rate is above 85%)	5 (Level 5: growth control rate is above 85%)
Cn1nnnc1NC(=O)c1ccnc(-c2ccc(Cl)nc2)c1Cl [Compound 1-129]	5 (Level 5: growth control rate is above 85%)	5 (Level 5: growth control rate is above 85%)	5 (Level 5: growth control rate is above 85%)	5 (Level 5: growth control rate is above 85%)
Cn1nnnc1NC(=O)c1ccnc(-c2cccnc2Cl)c1Cl [Compound 1-130]	5 (Level 5: growth control rate is above 85%)	5 (Level 5: growth control rate is above 85%)	5 (Level 5: growth control rate is above 85%)	5 (Level 5: growth control rate is above 85%)
Cn1nnnc1NC(=O)c1ccnc(-c2ccc(Br)nc2)c1Cl [Compound 1-131]	5 (Level 5: growth control rate is above 85%)	5 (Level 5: growth control rate is above 85%)	5 (Level 5: growth control rate is above 85%)	5 (Level 5: growth control rate is above 85%)
Cn1nnnc1NC(=O)c1ccnc(-c2ccc(F)nc2)c1Cl [Compound 1-132]	5 (Level 5: growth control rate is above 85%)	5 (Level 5: growth control rate is above 85%)	5 (Level 5: growth control rate is above 85%)	5 (Level 5: growth control rate is above 85%)
Cn1nnnc1NC(=O)c1ccnc(-c2cncc(C#N)c2)c1Cl [Compound 1-133]	5 (Level 5: growth control rate is above 85%)	5 (Level 5: growth control rate is above 85%)	5 (Level 5: growth control rate is above 85%)	5 (Level 5: growth control rate is above 85%)
